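96-well plates; 48 h exposure; 5 concentrations. Endpoints by linear interpolation between flanking doses. Not reached: highest tested concentration assigned. GI50: concentration for 50% inhibition of growth. TGI marks complete inhibition of growth.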
How the values were obtained:
Assay in all cases: NCI-60 cell line screen, 48 h
[1] = system: A498 renal
[2] = system: UACC-257 melanoma
[3] = system: CAKI-1 renal
[4] = system: HOP-92 NSCLC
[5] = system: HL-60(TB) leukemia
[6] = system: NCI-H460 lung
[7] = system: SF-295 CNS
[8] = system: UO-31 renal
[9] = system: KM12 colon
[10] = system: BT-549 breast

Cc1nc(C(=O)O)c2ccccc2n1
TGI [1]: > 100 µM
TGI [2]: > 100 µM
TGI [3]: > 100 µM
TGI [4]: > 100 µM
TGI [5]: > 100 µM
TGI [6]: > 100 µM
TGI [7]: > 100 µM
TGI [8]: > 100 µM
TGI [9]: > 100 µM

C/C(=C\c1cnc(C)s1)[C@@H]1C[C@@H]2O[C@@H]2CCC[C@H](C)[C@H](O)[C@@H](C)C(=O)C(C)(C)[C@@H](O)CC(=O)O1
GI50 [10]: < 0.01 µM
TGI [10]: > 100 µM
GI50 [4]: < 0.0162 µM
TGI [4]: > 100 µM
GI50 [6]: < 0.01 µM
TGI [6]: > 100 µM
GI50 [7]: 0.0102 µM
TGI [7]: > 100 µM
GI50 [8]: < 0.0105 µM
TGI [8]: > 100 µM
GI50 [9]: < 0.01 µM
TGI [9]: > 100 µM

COC1C(O)C(CO)OC(OC2C(O)COC(OC3C(C)OC(OC4C(O[C@H]5CC[C@@]6(C)C(CC=C7[C@H]6CCC68C(=O)O[C@@](C)(CCCC(C)C)[C@H]6[C@@H](OC(C)=O)C[C@@]78C)C5(C)C)OCC(OS(=O)(=O)O)C4O)C(OC4OCC(O)C(O)C4O)C3O)C2O)C1O (stereo partly drawn)
GI50 [1]: 0.324 µM
TGI [1]: 0.821 µM
GI50 [2]: 1.51 µM
TGI [2]: 3.54 µM
GI50 [10]: 0.226 µM
TGI [10]: 0.523 µM
GI50 [3]: 0.303 µM
TGI [3]: 0.922 µM
GI50 [4]: 0.0934 µM
TGI [4]: 0.842 µM
GI50 [6]: 0.315 µM
TGI [6]: 1.45 µM
GI50 [7]: 0.158 µM
TGI [7]: 0.389 µM
GI50 [8]: 0.2 µM
TGI [8]: 0.746 µM
GI50 [9]: 0.0746 µM
TGI [9]: 0.193 µM

C=CNC(=O)NC(=O)CSc1nnc(-c2ccccc2NC(=O)C(F)(F)F)c(=O)[nH]1
TGI [3]: > 100 µM
TGI [4]: 86.6 µM
TGI [6]: > 100 µM
TGI [7]: > 100 µM
TGI [8]: > 100 µM
TGI [9]: > 100 µM

CC12CCC(=O)N1c1ccc([N+](=O)[O-])cc1N2 (stereo not drawn)
TGI [1]: > 100 µM
TGI [2]: > 100 µM
TGI [5]: > 100 µM
TGI [7]: > 100 µM
TGI [8]: > 100 µM
TGI [9]: > 100 µM

O=C(c1nc2ccccc2[nH]c1=O)C(O)c1ccccc1 (stereo not drawn)
TGI [1]: 99.6 µM
TGI [2]: > 100 µM
TGI [3]: > 100 µM
TGI [4]: > 100 µM
TGI [5]: > 100 µM
TGI [6]: > 100 µM
TGI [7]: > 100 µM
TGI [8]: > 100 µM
TGI [9]: > 100 µM

COc1cc2c(cc1OC)-c1ncc3c(OC)c(OC)c(OC)cc3c1C2
GI50 [3]: 55.2 µM
TGI [3]: > 100 µM
GI50 [4]: 58.5 µM
TGI [4]: > 100 µM
GI50 [5]: 10.2 µM
TGI [5]: > 100 µM
GI50 [6]: 15.3 µM
TGI [6]: 61.3 µM
GI50 [7]: 25.8 µM
TGI [7]: > 100 µM
GI50 [8]: 3.41 µM
TGI [8]: 15.7 µM
GI50 [9]: 33.8 µM
TGI [9]: > 100 µM

CC(=O)OCCOCNC(=S)N/N=C/c1cc(Br)cs1
TGI [1]: > 100 µM
TGI [2]: > 100 µM
TGI [5]: > 100 µM
TGI [6]: > 100 µM
TGI [7]: > 100 µM
TGI [8]: > 100 µM
TGI [9]: > 100 µM

OC(C#Cc1ccccc1)(c1ccccc1)c1ccccc1
TGI [1]: 83.4 µM
TGI [2]: > 100 µM
TGI [10]: > 100 µM
TGI [3]: 61.8 µM
TGI [5]: > 100 µM
TGI [6]: 50.6 µM
TGI [7]: 77.7 µM
TGI [8]: > 100 µM
TGI [9]: 78.4 µM

O=C1c2sccc2-c2cccc3cccc1c23 (tested in a mixture with another compound)
TGI [2]: 38.9 µM
TGI [10]: 25.7 µM
TGI [3]: 24.2 µM
TGI [5]: 46.1 µM
TGI [6]: 82.6 µM
TGI [7]: 45 µM
TGI [8]: 78.3 µM
TGI [9]: 28.6 µM

Reference: PubChem BioAssay (NCI)
